Measured values as given in PMC9688344, “[^225Ac]Ac-SibuDAB for Targeted Alpha Therapy of Prostate Cancer: Preclinical Evaluation and Comparison with [^225Ac]Ac-PSMA-617” (Cancers, 2022).

System: immunocompetent FVB mice
Assay: Tolerability study in immunocompetent mice
Type: in vivo
From the text: Five- to six-week-old immunocompetent, female FVB mice were purchased from Charles River Laboratories (Sulzfeld, Germany). After an acclimatization period of at least 7 days, the mice (n = 5 per group) were intravenously injected with 30 kBq [^225Ac]Ac-SibuDAB or 30 kBq [^225Ac]Ac-PSMA-617 and additional mice (n = 7 per group) remained untreated as controls. Mice were monitored by measuring their body mass and potential signs of pain or unease three times a week (Supplementary Material: Section S7). The mice were euthanized on Day 10, Day 28 or on Day 56, respectively, and variable parameters were assessed from blood and tissue samples.
Hematological analysis was performed using blood samples taken by cardiac puncture immediately after euthanasia. Blood and bone marrow smears were prepared and stained using the Pappenheim protocol. The assessment was carried out by a board-certified veterinary anatomic pathologist (AnaPath Services GmbH, Liestal, Switzerland). Blood plasma parameters were determined in plasma after centrifugation of blood samples obtained shortly before euthanasia (Supplementary Material: Section S7).
Tissue sections of formalin-fixed paraffin-embedded (FFPE) spleen, salivary glands and kidneys were prepared and stained with hematoxylin and eosin (H&E) by AnaPath Services GmbH (Liestal, Switzerland). The tissues were analyzed by a board certified veterinary pathologist using a pre-defined scoring system (Supplementary Material: Section S7). […]
The percentage of radioligand bound to mouse or human plasma (A bound) was plotted against the molar ratios of MSA/HSA to radioligand and fitted with a nonlinear regression curve (specific binding with Hill slope, Bmax set to 100%) using GraphPad Prism software (version 8) to obtain the half maximum binding (B 50).
Results: The results are reported in the main article.
Purpose: A tolerability study with normal, immunocompetent FVB mice was con-ducted in order to assess potential side effects to the bone marrow, spleen, salivary glands and kidneys after the application of high activities of the 225Ac-labeled PSMA radioligands.
Methods: Monitoring Body Mass and Signs of Unease: Mice were monitored by meas-uring their body mass (BM) three times a week. The body masses were expressed as the relative body mass, defined as [BMx/BM0], where BMx is the body mass in grams on a given Day x and BM0 is the body mass in grams on Day 0. Endpoint criteria, defined as (i) >15% loss in body mass, (ii) signs of unease and pain or a combination thereof based on a scoring system, were not reached in this stu dy.
Hematology: Blood cell counts were determined in blood samples taken by cardiac puncture immediately after euthanasia and collected in EDTA tubes (Microvette® 100 K3 EDTA, Sarstedt, Germany). Leukocyte, lymphocyte, erythrocyte and thrombocyte counts as well as hemoglobin and hematocrit values were determined using a hematology ana-lyzer (VetScan HM5, Abaxis, United States). Blood smears were prepared on glass slides with cardiac blood. The bone marrow was collected from the femur, diluted in FCS/H2O (2:1 v/v) and smeared onto microscopy slides using a paintbrush. The slides were stained with a May Grünwald solution and subsequently with diluted Giemsa solution using the Pappenheim method and covered with coverslips using mounting medium (Pertex).
The assessment of potential morphological ch anges of the blood cells and counting of the subgroups of leukocytes was performed by a board-certified veterinary pathologist (Ana-Path Services GmbH, Liestal, Switzerland).
Histopathological Analysis: Spleen, salivary glands and kidneys were formalin-fixed and paraffin-embedded. Tissue sections were stained with hematoxylin & eosin (H&E) […]
Blood Plasma Parameters: Blood plasma parameters were determined in plasma ob-tained from centrifuged retrobulbar blood samples collected in lithium-heparin tubes (Mi-crovette® 200 LH, SARSTEDT). The concentrations of blood urea nitrogen (BUN), alkaline […]

O=C([O-])CN1CCN(CC(=O)[O-])CCN(CC(=O)NCC2CCC(C(=O)NC(Cc3ccc4ccccc4c3)C(=O)NCCCCC(NC(=O)NC(CCC(=O)O)C(=O)O)C(=O)O)CC2)CCN(CC(=O)[O-])CC1.[225Ac+3] (stereo not shown) [[^225Ac]Ac-PSMA-617]
Tolerability (body mass) (30 kBq per mouse, until Day 56): well tolerated
Kidneys: Hyperplasia/hypertrophy, tubular, incidence (Day 10, 30 kBq): 2
Kidneys: Hyperplasia/hypertrophy, tubular, score average (Day 10, 30 kBq): 1.0
Kidneys: Hypertrophy/hyperplasia, tubular with ectasia, incidence (Day 10, 30 kBq): 0
Kidneys: Hypertrophy/hyperplasia, tubular with ectasia, score average (Day 10, 30 kBq): 0.0
Kidneys: Inflammatory cells, interstitium, incidence (Day 10, 30 kBq): 0
Kidneys: Inflammatory cells, interstitium, score average (Day 10, 30 kBq): 0.0
Kidneys: Inflammatory cells, pelvis, incidence (Day 10, 30 kBq): 0
Kidneys: Inflammatory cells, pelvis, score average (Day 10, 30 kBq): 0.0
Kidneys: Mineralization, papilla, incidence (Day 10, 30 kBq): 0
Kidneys: Mineralization, papilla, score average (Day 10, 30 kBq): 0.0
Kidneys: Tubular basophilia, incidence (Day 10, 30 kBq): 0
Kidneys: Tubular basophilia, score average (Day 10, 30 kBq): 0.0
Salivary glands: Ductal hyperplasia with inflammatory cells, incidence (Day 10, 30 kBq): 0
Salivary glands: Ductal hyperplasia with inflammatory cells, score average (Day 10, 30 kBq): 0.0
Salivary glands: Hypertrophy acinar, sublingual, incidence (Day 10, 30 kBq): 0
Salivary glands: Hypertrophy acinar, sublingual, score average (Day 10, 30 kBq): 0.0
Salivary glands: Mononuclear cell foci, incidence (Day 10, 30 kBq): 1
Salivary glands: Mononuclear cell foci, score average (Day 10, 30 kBq): 1.0
Salivary glands: Necrosis, multifocal, serous acinar cells, incidence (Day 10, 30 kBq): two out of five
Salivary glands: Necrosis, multifocal, serous acinar cells, score average (Day 10, 30 kBq): 1.0
Salivary glands: Vacuolation, incidence (Day 10, 30 kBq): 0
Salivary glands: Vacuolation, score average (Day 10, 30 kBq): 0.0
Spleen: Extramedullary hematopoiesis, incidence (Day 10, 30 kBq): 5
Spleen: Extramedullary hematopoiesis, score average (Day 10, 30 kBq): 1.0
Spleen: Hyperplasia, lymphoid, incidence (Day 10, 30 kBq): 1
Spleen: Hyperplasia, lymphoid, score average (Day 10, 30 kBq): 1.0
Spleen: Pigment, incidence (Day 10, 30 kBq): 5
Spleen: Pigment, score average (Day 10, 30 kBq): 1.0
mice with relative increase of neutrophilic blasts (metamyelocytes) in peripheral blood (Day 10, 30 kBq): two out of five
myelopoiesis in bone marrow smears (group value) (Day 10, 30 kBq): 62%
Salivary glands: Necrosis, multifocal, serous acinar cells, incidence (Day 10, 30 kBq, listed as [225Ac]Ac-PSMA-617): 2
Blood smear, Notes (Day 10, mouse M1): More neutrophilic blasts (Metamyelocyte)
Bone marrow % E (Day 10, mouse M1): 50%
Bone marrow % M (Day 10, mouse M1): 50%
Blood smear, Notes (Day 10, mouse M2): More neutrophilic blasts (Metamyelocyte)
Bone marrow % E (Day 10, mouse M2): 60%
Bone marrow % M (Day 10, mouse M2): 40%
Bone marrow % E (Day 10, mouse M3): 20%
Bone marrow % M (Day 10, mouse M3): 80%
Bone marrow smear, Notes (Day 10, mouse M3): More blasts, neutrophilic row
Bone marrow % E (Day 10, mouse M4): 30%
Bone marrow % M (Day 10, mouse M4): 70%
Bone marrow smear, Notes (Day 10, mouse M4): More blasts, neutrophilic row
Bone marrow % E (Day 10, mouse M5): 30%
Bone marrow % M (Day 10, mouse M5): 70%
Bone marrow smear, Notes (Day 10, mouse M5): More blasts, neutrophilic row
Albumin concentration in blood plasma (Day 28, 30 kBq): 23 g/L
Blood urea nitrogen (Day 28, 30 kBq): 8.7 ± 1.1 mmol/L
Erythrocyte counts (Day 28, 30 kBq): 8.7 ± 0.3 × 10^12/L
Hematocrit (Day 28, 30 kBq): 43 ± 3%
Hemoglobin (Day 28, 30 kBq): 11.3 ± 0.5 g/dL
Kidneys: Hyperplasia/hypertrophy, tubular, incidence (Day 28, 30 kBq): 1
Kidneys: Hyperplasia/hypertrophy, tubular, score average (Day 28, 30 kBq): 1.0
Kidneys: Hypertrophy/hyperplasia, tubular with ectasia, incidence (Day 28, 30 kBq): 0
Kidneys: Hypertrophy/hyperplasia, tubular with ectasia, score average (Day 28, 30 kBq): 0.0
Kidneys: Inflammatory cells, interstitium, incidence (Day 28, 30 kBq): 0
Kidneys: Inflammatory cells, interstitium, score average (Day 28, 30 kBq): 0.0
Kidneys: Inflammatory cells, pelvis, incidence (Day 28, 30 kBq): 0
Kidneys: Inflammatory cells, pelvis, score average (Day 28, 30 kBq): 0.0
Kidneys: Mineralization, papilla, incidence (Day 28, 30 kBq): 1
Kidneys: Mineralization, papilla, score average (Day 28, 30 kBq): 1.0
Kidneys: Tubular basophilia, incidence (Day 28, 30 kBq): 1
Kidneys: Tubular basophilia, score average (Day 28, 30 kBq): 1.0
Salivary glands: Ductal hyperplasia with inflammatory cells, incidence (Day 28, 30 kBq): 0
Salivary glands: Ductal hyperplasia with inflammatory cells, score average (Day 28, 30 kBq): 0.0
Salivary glands: Hypertrophy acinar, sublingual, incidence (Day 28, 30 kBq): 0
Salivary glands: Hypertrophy acinar, sublingual, score average (Day 28, 30 kBq): 0.0
Salivary glands: Mononuclear cell foci, incidence (Day 28, 30 kBq): 1
Salivary glands: Mononuclear cell foci, score average (Day 28, 30 kBq): 1.0
Salivary glands: Necrosis, multifocal, serous acinar cells, incidence (Day 28, 30 kBq): all five
Salivary glands: Necrosis, multifocal, serous acinar cells, score average (Day 28, 30 kBq): 1.8
Salivary glands: Vacuolation, incidence (Day 28, 30 kBq): 0
Salivary glands: Vacuolation, score average (Day 28, 30 kBq): 0.0
Spleen: Extramedullary hematopoiesis, incidence (Day 28, 30 kBq): 5
Spleen: Extramedullary hematopoiesis, score average (Day 28, 30 kBq): 1.8
Spleen: Hyperplasia, lymphoid, incidence (Day 28, 30 kBq): 5
Spleen: Hyperplasia, lymphoid, score average (Day 28, 30 kBq): 1.0
Spleen: Pigment, incidence (Day 28, 30 kBq): 5
Spleen: Pigment, score average (Day 28, 30 kBq): 1.8
Salivary glands: Necrosis, multifocal, serous acinar cells, incidence (Day 28, 30 kBq, listed as [225Ac]Ac-PSMA-617): 5
Bone marrow % E (Day 28, mouse M1): 50%
Bone marrow % M (Day 28, mouse M1): 50%
Bone marrow % E (Day 28, mouse M2): 40%
Bone marrow % M (Day 28, mouse M2): 60%
Bone marrow % E (Day 28, mouse M3): 40%
Bone marrow % M (Day 28, mouse M3): 60%
Bone marrow % E (Day 28, mouse M4): 50%
Bone marrow % M (Day 28, mouse M4): 50%
Bone marrow % E (Day 28, mouse M5): 40%
Bone marrow % M (Day 28, mouse M5): 60%
Kidneys: Hyperplasia/hypertrophy, tubular, incidence (Day 56, 30 kBq): 1
Kidneys: Hyperplasia/hypertrophy, tubular, score average (Day 56, 30 kBq): 1.0
Kidneys: Hypertrophy/hyperplasia, tubular with ectasia, incidence (Day 56, 30 kBq): 0
Kidneys: Hypertrophy/hyperplasia, tubular with ectasia, score average (Day 56, 30 kBq): 0.0
Kidneys: Inflammatory cells, interstitium, incidence (Day 56, 30 kBq): 0
Kidneys: Inflammatory cells, interstitium, score average (Day 56, 30 kBq): 0.0
Kidneys: Inflammatory cells, pelvis, incidence (Day 56, 30 kBq): 0
Kidneys: Inflammatory cells, pelvis, score average (Day 56, 30 kBq): 0.0
Kidneys: Mineralization, papilla, incidence (Day 56, 30 kBq): 0
Kidneys: Mineralization, papilla, score average (Day 56, 30 kBq): 0.0
Kidneys: Tubular basophilia, incidence (Day 56, 30 kBq): 1
Kidneys: Tubular basophilia, score average (Day 56, 30 kBq): 1.0
Salivary glands: Ductal hyperplasia with inflammatory cells, incidence (Day 56, 30 kBq): 0
Salivary glands: Ductal hyperplasia with inflammatory cells, score average (Day 56, 30 kBq): 0.0
Salivary glands: Hypertrophy acinar, sublingual, incidence (Day 56, 30 kBq): 0
Salivary glands: Hypertrophy acinar, sublingual, score average (Day 56, 30 kBq): 0.0
Salivary glands: Mononuclear cell foci, incidence (Day 56, 30 kBq): 2
Salivary glands: Mononuclear cell foci, score average (Day 56, 30 kBq): 1.0
Salivary glands: Necrosis, multifocal, serous acinar cells, incidence (Day 56, 30 kBq): 0
Salivary glands: Necrosis, multifocal, serous acinar cells, score average (Day 56, 30 kBq): 0.0
Salivary glands: Vacuolation, incidence (Day 56, 30 kBq): 0
Salivary glands: Vacuolation, score average (Day 56, 30 kBq): 0.0
Spleen: Extramedullary hematopoiesis, incidence (Day 56, 30 kBq): 5
Spleen: Extramedullary hematopoiesis, score average (Day 56, 30 kBq): 1.4
Spleen: Hyperplasia, lymphoid, incidence (Day 56, 30 kBq): 0
Spleen: Hyperplasia, lymphoid, score average (Day 56, 30 kBq): 0.0
Spleen: Pigment, incidence (Day 56, 30 kBq): 5
Spleen: Pigment, score average (Day 56, 30 kBq): 2.0
Bone marrow % E (Day 56, mouse M1): 30%
Bone marrow % M (Day 56, mouse M1): 70%
Bone marrow % E (Day 56, mouse M2): 40%
Bone marrow % M (Day 56, mouse M2): 60%
Bone marrow % E (Day 56, mouse M3): 30%
Bone marrow % M (Day 56, mouse M3): 70%
Bone marrow % E (Day 56, mouse M4): 40%
Bone marrow % M (Day 56, mouse M4): 60%
